In patent US20230085307A1, “PYRIDAZINONE COMPOUND AND HERBICIDE” (NISSAN CHEMICAL CORPORATION, priority 2019, published 2023):

How the values were obtained:
redroot pigweed [1] = experiment: Test Example 5: herbicidal effect by foliage application, plastic box (Table 20, symbol N); assay type: in vivo, redroot pigweed (Amaranthus retroflexus); settings: foliage application, evaluated three weeks after application
Summary of the method: (§1)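 Plants were sown into sterilized diluvial soil under about 1.5 cm cover and kept in a greenhouse at 25° C. to 30° C. Fourteen days on, foliage received an even spray of the diluted emulsion. Herbicidal or crop effect was judged three weeks afterwards.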

chickweed [2] = experiment: Test Example 5: herbicidal effect by foliage application, plastic box (Table 20, symbol P); assay type: in vivo, common chickweed (Stellaria media); settings: foliage application, evaluated three weeks after application
Summary of the method: as §1

false cleavers = experiment: Test Example 4: herbicidal effect by soil treatment (Table 19, symbol Q); assay type: in vivo, false cleavers (Galium spurium); settings: amount of applied herbicide 320 g/ha
Summary of the method: (§2)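 Pre-emergence style soil spray: seeds under ~1.5 cm sterilized diluvial soil received a uniform coat of emulsion diluted to the predetermined herbicide amount. Greenhouse 25–30° C; readout at week three on previously defined criteria.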

velvetleaf [3] = experiment: Test Example 5: herbicidal effect by foliage application, plastic box (Table 20, symbol M); assay type: in vivo, velvetleaf (Abutilon theophrasti); settings: foliage application, evaluated three weeks after application
Summary of the method: as §1

Italian ryegrass [4] = experiment: Test Example 5: herbicidal effect by foliage application, plastic box (Table 20, symbol K); assay type: in vivo, Italian ryegrass (Lolium multiflorum); settings: foliage application, evaluated three weeks after application
Summary of the method: as §1

windgrass [5] = experiment: Test Example 5: herbicidal effect by foliage application, plastic box (Table 20, symbol L); assay type: in vivo, windgrass (Apera spica-venti); settings: foliage application, evaluated three weeks after application
Summary of the method: as §1

green foxtail [6] = experiment: Test Example 4: herbicidal effect by soil treatment (Table 19, symbol G); assay type: in vivo, green foxtail (Setaria viridis); settings: amount of applied herbicide 320 g/ha
Summary of the method: as §2

windgrass [7] = experiment: Test Example 4: herbicidal effect by soil treatment (Table 19, symbol L); assay type: in vivo, windgrass (Apera spica-venti); settings: amount of applied herbicide 320 g/ha
Summary of the method: as §2

wild oat [8] = experiment: Test Example 4: herbicidal effect by soil treatment (Table 19, symbol I); assay type: in vivo, wild oat (Avena fatua); settings: amount of applied herbicide 320 g/ha
Summary of the method: as §2

barnyard grass [9] = experiment: Test Example 3: herbicidal effect by foliage application, Wagner pot (Table 18, symbol H); assay type: in vivo, barnyard grass (Echinochloa crus-galli); settings: amount of applied herbicide 320 g/ha
Summary of the method: (§3)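 Plants were sown in alluvial soil held under 0.1–0.5 cm standing water and grown 14 days in a greenhouse at 25–30 °C. An emulsifiable formulation, water-diluted to the set dose, was then sprayed onto the foliage, and effects were scored three weeks later using previously defined criteria.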

redroot pigweed [10] = experiment: Test Example 4: herbicidal effect by soil treatment (Table 19, symbol N); assay type: in vivo, redroot pigweed (Amaranthus retroflexus); settings: amount of applied herbicide 320 g/ha
Summary of the method: as §2

green foxtail [11] = experiment: Test Example 5: herbicidal effect by foliage application, plastic box (Table 20, symbol G); assay type: in vivo, green foxtail (Setaria viridis); settings: foliage application, evaluated three weeks after application
Summary of the method: as §1

Chinese sprangletop = experiment: Test Example 3: herbicidal effect by foliage application, Wagner pot (Table 18, symbol D); assay type: in vivo, chinese sprangletop (Leptochloa chinensis); settings: amount of applied herbicide 320 g/ha
Summary of the method: as §3

persian speedwell [12] = experiment: Test Example 4: herbicidal effect by soil treatment (Table 19, symbol R); assay type: in vivo, Persian speedwell (Veronica persica); settings: amount of applied herbicide 320 g/ha
Summary of the method: as §2

chickweed [13] = experiment: Test Example 4: herbicidal effect by soil treatment (Table 19, symbol P); assay type: in vivo, common chickweed (Stellaria media); settings: amount of applied herbicide 320 g/ha
Summary of the method: as §2

blackgrass [14] = experiment: Test Example 5: herbicidal effect by foliage application, plastic box (Table 20, symbol J); assay type: in vivo, blackgrass (Alopecurus myosuroides); settings: foliage application, evaluated three weeks after application
Summary of the method: as §1

lambsquarters [15] = experiment: Test Example 4: herbicidal effect by soil treatment (Table 19, symbol O); assay type: in vivo, lambsquarters (Chenopodium album); settings: amount of applied herbicide 320 g/ha
Summary of the method: as §2

blackgrass [16] = experiment: Test Example 4: herbicidal effect by soil treatment (Table 19, symbol J); assay type: in vivo, blackgrass (Alopecurus myosuroides); settings: amount of applied herbicide 320 g/ha
Summary of the method: as §2

lambsquarters [17] = experiment: Test Example 5: herbicidal effect by foliage application, plastic box (Table 20, symbol O); assay type: in vivo, lambsquarters (Chenopodium album); settings: foliage application, evaluated three weeks after application
Summary of the method: as §1

wild oat [18] = experiment: Test Example 5: herbicidal effect by foliage application, plastic box (Table 20, symbol I); assay type: in vivo, wild oat (Avena fatua); settings: foliage application, evaluated three weeks after application
Summary of the method: as §1

Italian ryegrass [19] = experiment: Test Example 4: herbicidal effect by soil treatment (Table 19, symbol K); assay type: in vivo, Italian ryegrass (Lolium multiflorum); settings: amount of applied herbicide 320 g/ha
Summary of the method: as §2

rice flat sedge = experiment: Test Example 3: herbicidal effect by foliage application, Wagner pot (Table 18, symbol E); assay type: in vivo, rice flat sedge (Cyperus iria); settings: amount of applied herbicide 320 g/ha
Summary of the method: as §3

persian speedwell [20] = experiment: Test Example 5: herbicidal effect by foliage application, plastic box (Table 20, symbol R); assay type: in vivo, Persian speedwell (Veronica persica); settings: foliage application, evaluated three weeks after application
Summary of the method: as §1

velvetleaf [21] = experiment: Test Example 4: herbicidal effect by soil treatment (Table 19, symbol M); assay type: in vivo, velvetleaf (Abutilon theophrasti); settings: amount of applied herbicide 320 g/ha
Summary of the method: as §2

barnyard grass [22] = experiment: Test Example 4: herbicidal effect by soil treatment (Table 19, symbol H); assay type: in vivo, barnyard grass (Echinochloa crus-galli); settings: amount of applied herbicide 320 g/ha
Summary of the method: as §2

southern crabgrass [23] = experiment: Test Example 4: herbicidal effect by soil treatment (Table 19, symbol F); assay type: in vivo, southern crabgrass (Digitaria ciliaris); settings: amount of applied herbicide 320 g/ha
Summary of the method: as §2

southern crabgrass [24] = experiment: Test Example 5: herbicidal effect by foliage application, plastic box (Table 20, symbol F); assay type: in vivo, southern crabgrass (Digitaria ciliaris); settings: foliage application, evaluated three weeks after application
Summary of the method: as §1

barnyard grass [25] = experiment: Test Example 5: herbicidal effect by foliage application, plastic box (Table 20, symbol H); assay type: in vivo, barnyard grass (Echinochloa crus-galli); settings: foliage application, evaluated three weeks after application
Summary of the method: as §1

CCSc1cccc(-c2sc3ccc(F)cc3c2-c2c(O)c(C)nn(C)c2=O)c1 [2-242]
herbicidal effect on N: redroot pigweed (criteria 0-5) (redroot pigweed [1]; 320 g/ha): 4 (Herbicidal rate of 70% or more and less than 90%) | herbicidal effect on P: chickweed (criteria 0-5) (chickweed [2]; 320 g/ha): 5 (Herbicidal rate of 90% or more (almost completely withered)) | herbicidal effect on Q: false cleavers (false cleavers): 0 (Herbicidal rate of 5% or less (almost no effect)) | herbicidal effect on M: velvetleaf (criteria 0-5) (velvetleaf [3]; 320 g/ha): 3 (Herbicidal rate of 40% or more and less than 70%) | herbicidal effect on K: Italian ryegrass (criteria 0-5) (Italian ryegrass [4]; 320 g/ha): 1 (Herbicidal rate of 5% or more and less than 20%) | herbicidal effect on L: windgrass (criteria 0-5) (windgrass [5]; 320 g/ha): 4 (Herbicidal rate of 70% or more and less than 90%) | herbicidal effect on G: green foxtail (green foxtail [6]): 0 (Herbicidal rate of 5% or less (almost no effect)) | herbicidal effect on L: windgrass (windgrass [7]): 0 (Herbicidal rate of 5% or less (almost no effect)) | herbicidal effect on I: wild oat (wild oat [8]): 0 (Herbicidal rate of 5% or less (almost no effect)) | herbicidal effect on H: barnyard grass (barnyard grass [9]): 3 (Herbicidal rate of 40% or more and less than 70%) | herbicidal effect on N: redroot pigweed (redroot pigweed [10]): 2 (Herbicidal rate of 20% or more and less than 40%) | herbicidal effect on G: green foxtail (criteria 0-5) (green foxtail [11]; 320 g/ha): 3 (Herbicidal rate of 40% or more and less than 70%) | herbicidal effect on D: Chinese sprangletop (Chinese sprangletop): 0 (Herbicidal rate of 5% or less (almost no effect)) | herbicidal effect on R: persian speedwell (persian speedwell [12]): 4 (Herbicidal rate of 70% or more and less than 90%) | herbicidal effect on P: chickweed (chickweed [13]): 1 (Herbicidal rate of 5% or more and less than 20%) | herbicidal effect on J: blackgrass (criteria 0-5) (blackgrass [14]; 320 g/ha): 0 (Herbicidal rate of 5% or less (almost no effect)) | herbicidal effect on O: lambsquarters (lambsquarters [15]): 1 (Herbicidal rate of 5% or more and less than 20%) | herbicidal effect on J: blackgrass (blackgrass [16]): 0 (Herbicidal rate of 5% or less (almost no effect)) | herbicidal effect on O: lambsquarters (criteria 0-5) (lambsquarters [17]; 320 g/ha): 3 (Herbicidal rate of 40% or more and less than 70%) | herbicidal effect on I: wild oat (criteria 0-5) (wild oat [18]; 320 g/ha): 4 (Herbicidal rate of 70% or more and less than 90%) | herbicidal effect on K: Italian ryegrass (Italian ryegrass [19]): 0 (Herbicidal rate of 5% or less (almost no effect)) | herbicidal effect on E: rice flat sedge (rice flat sedge): 2 (Herbicidal rate of 20% or more and less than 40%) | herbicidal effect on R: persian speedwell (criteria 0-5) (persian speedwell [20]; 320 g/ha): 5 (Herbicidal rate of 90% or more (almost completely withered)) | herbicidal effect on M: velvetleaf (velvetleaf [21]): 0 (Herbicidal rate of 5% or less (almost no effect)) | herbicidal effect on H: barnyard grass (barnyard grass [22]): 0 (Herbicidal rate of 5% or less (almost no effect)) | herbicidal effect on F: southern crabgrass (southern crabgrass [23]): 0 (Herbicidal rate of 5% or less (almost no effect)) | herbicidal effect on F: southern crabgrass (criteria 0-5) (southern crabgrass [24]; 320 g/ha): 3 (Herbicidal rate of 40% or more and less than 70%) | herbicidal effect on H: barnyard grass (criteria 0-5) (barnyard grass [25]; 320 g/ha): 1 (Herbicidal rate of 5% or more and less than 20%)

CCn1nc(C)c(O)c(-c2c(-c3ccccc3OC)sc3ccc(F)cc23)c1=O [2-404]
N: redroot pigweed, herbicidal effect (criteria 0-5) (redroot pigweed [1]; AAH 320 g/ha): 5 (Herbicidal rate of 90% or more (almost completely withered)) | P: chickweed, herbicidal effect (criteria 0-5) (chickweed [2]; AAH 320 g/ha): 5 (Herbicidal rate of 90% or more (almost completely withered)) | herbicidal effect, Q: false cleavers (false cleavers): 0 (Herbicidal rate of 5% or less (almost no effect)) | M: velvetleaf, herbicidal effect (criteria 0-5) (velvetleaf [3]; AAH 320 g/ha): 3 (Herbicidal rate of 40% or more and less than 70%) | K: Italian ryegrass, herbicidal effect (criteria 0-5) (Italian ryegrass [4]; AAH 320 g/ha): 0 (Herbicidal rate of 5% or less (almost no effect)) | L: windgrass, herbicidal effect (criteria 0-5) (windgrass [5]; AAH 320 g/ha): 0 (Herbicidal rate of 5% or less (almost no effect)) | herbicidal effect, G: green foxtail (green foxtail [6]): 0 (Herbicidal rate of 5% or less (almost no effect)) | herbicidal effect, L: windgrass (windgrass [7]): 0 (Herbicidal rate of 5% or less (almost no effect)) | herbicidal effect, I: wild oat (wild oat [8]): 0 (Herbicidal rate of 5% or less (almost no effect)) | herbicidal effect on H: barnyard grass (barnyard grass [9]): 3 (Herbicidal rate of 40% or more and less than 70%) | herbicidal effect, N: redroot pigweed (redroot pigweed [10]): 3 (Herbicidal rate of 40% or more and less than 70%) | G: green foxtail, herbicidal effect (criteria 0-5) (green foxtail [11]; AAH 320 g/ha): 1 (Herbicidal rate of 5% or more and less than 20%) | herbicidal effect on D: Chinese sprangletop (Chinese sprangletop): 0 (Herbicidal rate of 5% or less (almost no effect)) | herbicidal effect, R: persian speedwell (persian speedwell [12]): 0 (Herbicidal rate of 5% or less (almost no effect)) | herbicidal effect, P: chickweed (chickweed [13]): 0 (Herbicidal rate of 5% or less (almost no effect)) | J: blackgrass, herbicidal effect (criteria 0-5) (blackgrass [14]; AAH 320 g/ha): 0 (Herbicidal rate of 5% or less (almost no effect)) | herbicidal effect, O: lambsquarters (lambsquarters [15]): 3 (Herbicidal rate of 40% or more and less than 70%) | herbicidal effect, J: blackgrass (blackgrass [16]): 0 (Herbicidal rate of 5% or less (almost no effect)) | O: lambsquarters, herbicidal effect (criteria 0-5) (lambsquarters [17]; AAH 320 g/ha): 3 (Herbicidal rate of 40% or more and less than 70%) | I: wild oat, herbicidal effect (criteria 0-5) (wild oat [18]; AAH 320 g/ha): 0 (Herbicidal rate of 5% or less (almost no effect)) | herbicidal effect, K: Italian ryegrass (Italian ryegrass [19]): 0 (Herbicidal rate of 5% or less (almost no effect)) | herbicidal effect on E: rice flat sedge (rice flat sedge): 3 (Herbicidal rate of 40% or more and less than 70%) | R: persian speedwell, herbicidal effect (criteria 0-5) (persian speedwell [20]; AAH 320 g/ha): 5 (Herbicidal rate of 90% or more (almost completely withered)) | herbicidal effect, M: velvetleaf (velvetleaf [21]): 0 (Herbicidal rate of 5% or less (almost no effect)) | herbicidal effect, H: barnyard grass (barnyard grass [22]): 0 (Herbicidal rate of 5% or less (almost no effect)) | herbicidal effect, F: southern crabgrass (southern crabgrass [23]): 0 (Herbicidal rate of 5% or less (almost no effect)) | F: southern crabgrass, herbicidal effect (criteria 0-5) (southern crabgrass [24]; AAH 320 g/ha): 2 (Herbicidal rate of 20% or more and less than 40%) | H: barnyard grass, herbicidal effect (criteria 0-5) (barnyard grass [25]; AAH 320 g/ha): 3 (Herbicidal rate of 40% or more and less than 70%)
